Consider seven molecules from patent US9700047B2, “Macrocyclic picolinamides as fungicides” (Dow AgroSciences LLC, priority 2014, dated 2017).

Where two headings read alike, the source gives them in different places.

Assay [1] concerns Rhyncosporium secalis. The assay is described as follows: Barley scald (RHYNSE) disease control on barley seedlings. To be noted: 100 ppm; 1 Day Protectant. It counts as in vivo. The procedure:
All fungicides were evaluated using the aforementioned method for their activity vs. all target diseases, unless stated otherwise. Wheat leaf blotch and brown rust activity were also evaluated using track spray applications, in which case the fungicides were formulated as EC formulations, containing 0.1% Trycol 5941 in the spray solutions. Barley seedlings (variety Harrington) were propagated in soil-less Metro mix, with each pot having 8 to 12 plants, and used in the test when first leaf was fully emerged. Test plants were inoculated by an aqueous spore suspension of Rhyncosporium secalis 24 hr after fungicide treatments. After inoculation the plants were kept in a dew room at 20° C. with 100% relative humidity for 48 hr. The plants were then transferred to a greenhouse set at 20° C. for disease to develop. Fungicide formulation, application and disease assessment on the sprayed leaves followed the procedures as described in the Example A.

The subject of assay [2] is Puccinia triticina; Synonym: Puccinia recondita f sp. tritici. The assay is described as follows: Wheat brown rust (PUCCRT) disease control on wheat seedlings. It counts as in vivo. The note with it: for pest or weed control at 121.5 g/ha: Low Volume activity at 121.5 g/H; for pest or weed control at 100 ppm: High Volume activity at 100 ppm.
Setting [3] is: 24 h, 1 Day Protectant, read-out: PUCCRT 1DP % Control rating.
Setting [4] is: 72 h, 3 Day Curative, read-out: PUCCRT 3DC % Control rating.

Consider `CCCC[C@@H]1[C@@H](Cc2ccc(C(F)(F)F)cc2)CCC[C@H](NC(=O)c2nccc(OC)c2OCOC(C)=O)C(=O)O[C@H]1C` [Compound 3], for which the “RHYNSE 1DP Disease Control rating” value in assay [1] is on record as “B (≦70)”. For the same molecule, the pest or weed control at 121.5 g/ha in assay [2] (setting [3]) is greater than 70%; in assay [2] (setting [4]), less than 70%.
With `COc1ccnc(C(=O)N[C@H]2CCC[C@H](CCCc3ccccc3)[C@@H](Cc3ccc(OC(F)(F)F)cc3)[C@H](C)OC2=O)c1O` [Compound 93], the pest or weed control at 100 ppm in assay [2] (setting [3]) and in assay [2] (setting [4]) was less than 70% in each case.
Take `COc1ccnc(C(=O)N[C@H]2CCC[C@H](CC3CC3)[C@@H](Cc3ccccc3)[C@H](C)OC2=O)c1O` [Compound 94]: the results for the pest or weed control at 121.5 g/ha in assay [2] (setting [3]) and in assay [2] (setting [4]) were greater than 70% and less than 70%, respectively.
For `COc1ccnc(C(=O)N[C@H]2CCC[C@H](Cc3ccccc3)[C@@H](Cc3ccc(F)cc3)[C@H](C)OC2=O)c1O` [Compound 95], in that order: greater than 70% and less than 70%.
As to `COc1ccnc(C(=O)N[C@H]2CCC[C@H](Cc3ccc(C(F)(F)F)cc3)[C@@H](Cc3ccc(OC(F)(F)F)cc3)[C@H](C)OC2=O)c1O` [Compound 96], the pest or weed control at 100 ppm in assay [2] (setting [3]) and in assay [2] (setting [4]) was less than 70% throughout.
With `COc1ccnc(C(=O)N[C@H]2CCC[C@H](Cc3ccccc3)[C@@H](Cc3ccc(OC(F)(F)F)cc3)[C@H](C)OC2=O)c1O` [Compound 97], the pest or weed control at 100 ppm in assay [2] (setting [3]) was greater than 70%; in assay [2] (setting [4]), less than 70%.
For `COc1ccnc(C(=O)N[C@H]2CCC[C@H](CCCc3ccccc3)[C@@H](Cc3ccccc3)[C@H](C)OC2=O)c1O` [Compound 98], in that order: greater than 70% and less than 70%.
